Test results published in PubChem BioAssay (NCI).
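Assay format: 96-well plates, 48-hour exposure. GI50 marks 50% less growth. TGI: concentration producing complete growth inhibition.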

Columns and labels:
Assay in all cases: DTP human tumour cell line panel, 48 h
[1] = tested on: A498 renal
[2] = tested on: ACHN renal
[3] = tested on: CAKI-1 renal
[4] = tested on: CCRF-CEM leukemia
[5] = tested on: DU-145 prostate
[6] = tested on: EKVX NSCLC
[7] = tested on: HCT-15 colon
[8] = tested on: HL-60(TB) leukemia
[9] = tested on: HOP-92 NSCLC
[10] = tested on: HS 578T breast
[11] = tested on: K-562 leukemia
[12] = tested on: KM12 colon
[13] = tested on: MALME-3M melanoma
[14] = tested on: MCF7 breast
[15] = tested on: NCI-H226 lung
[16] = tested on: NCI-H23 lung
[17] = tested on: NCI-H460 lung
[18] = tested on: NCI/ADR-RES ovarian
[19] = tested on: OVCAR-3 ovarian
[20] = tested on: OVCAR-4 ovarian
[21] = tested on: OVCAR-5 ovarian
[22] = tested on: PC-3 prostate
[23] = tested on: RXF 393 renal
[24] = tested on: SF-268 CNS
[25] = tested on: SF-295 CNS
[26] = tested on: SK-MEL-28 melanoma
[27] = tested on: SK-OV-3 ovarian
[28] = tested on: SN12C renal
[29] = tested on: SNB-19 CNS
[30] = tested on: SNB-75 CNS
[31] = tested on: SW-620 colon
[32] = tested on: TK-10 renal
[33] = tested on: UACC-62 melanoma
[34] = tested on: UO-31 renal
[35] = tested on: 786-0 renal
[36] = tested on: A549 NSCLC
[37] = tested on: BT-549 breast
[38] = tested on: COLO 205 colon
[39] = tested on: HCT-116 colon
[40] = tested on: HOP-62 NSCLC
[41] = tested on: HT29 colon
[42] = tested on: IGROV1 ovarian
[43] = tested on: LOX IMVI melanoma
[44] = tested on: M14 melanoma
[45] = tested on: MDA-MB-231 breast
[46] = tested on: MDA-MB-435
[47] = tested on: MOLT-4 leukemia
[48] = tested on: NCI-H522 lung
[49] = tested on: OVCAR-8 ovarian
[50] = tested on: RPMI-8226 leukemia
[51] = tested on: SF-539 CNS
[52] = tested on: SK-MEL-2 melanoma
[53] = tested on: SK-MEL-5 melanoma
[54] = tested on: SR leukemia
[55] = tested on: U251 CNS
[56] = tested on: UACC-257 melanoma
[57] = tested on: HCC-2998 colon

C=C(C)[C@@H]1CC[C@]2(C(=O)Nc3ccccn3)CC[C@]3(C)[C@H](CC[C@@H]4[C@@]5(C)CCCNC(C)(C)[C@@H]5CC[C@]43C)[C@@H]12 showed a GI50 [1] of 2.25 µM, a TGI [1] of 7.96 µM and a GI50 [2] of 2.08 µM. The TGI [2] was 4.64 µM, the GI50 [3] was 1.55 µM and the TGI [3] was 2.93 µM. It also gave a GI50 [4] of 3.02 µM, a TGI [4] greater than 100 µM and a GI50 [5] of 1.81 µM. The TGI [5] was 3.42 µM, the GI50 [6] was 1.06 µM and the TGI [6] was 2.53 µM. It also gave a GI50 [7] of 1.61 µM, a TGI [7] of 3.09 µM and a GI50 [8] of 1.82 µM. It also gave a TGI [8] of 4.28 µM, a GI50 [9] of 2.06 µM and a TGI [9] of 7.64 µM. The GI50 [10] was 1.92 µM, the TGI [10] was 4.42 µM and the GI50 [11] was 1.45 µM. For the same compound, the TGI [11] was 4.78 µM, the GI50 [12] was 1.82 µM and the TGI [12] was 3.36 µM. It also gave a GI50 [13] of 1.44 µM, a TGI [13] of 2.84 µM and a GI50 [14] of 1.48 µM. For the same compound, the TGI [14] was 3.07 µM, the GI50 [15] was 5.31 µM and the TGI [15] was 33.4 µM. It also gave a GI50 [16] of 1.85 µM, a TGI [16] of 3.77 µM and a GI50 [17] of 1.71 µM. For the same compound, the TGI [17] was 3.3 µM, the GI50 [18] was 1.93 µM and the TGI [18] was 4.14 µM. The GI50 [19] was 1.54 µM, the TGI [19] was 2.92 µM and the GI50 [20] was 1.44 µM. The TGI [20] was 2.99 µM, the GI50 [21] was 1.92 µM and the TGI [21] was 3.89 µM. For the same compound, the GI50 [22] was 1.99 µM, the TGI [22] was 6.2 µM and the GI50 [23] was 1.79 µM. It also gave a TGI [23] of 3.27 µM, a GI50 [24] of 1.95 µM and a TGI [24] of 4.79 µM. For the same compound, the GI50 [25] was 1.68 µM, the TGI [25] was 3.07 µM and the GI50 [26] was 1.69 µM. The TGI [26] was 3.13 µM, the GI50 [27] was 2.94 µM and the TGI [27] was 14.1 µM. It also gave a GI50 [28] of 1.57 µM, a TGI [28] of 2.92 µM and a GI50 [29] of 1.98 µM. For the same compound, the TGI [29] was 4.26 µM, the GI50 [30] was 1.72 µM and the TGI [30] was 5.89 µM. For the same compound, the GI50 [31] was 1.75 µM, the TGI [31] was 3.51 µM and the GI50 [32] was 2.26 µM. For the same compound, the TGI [32] was 5.45 µM, the GI50 [33] was 1.64 µM and the TGI [33] was 3.12 µM. It also gave a GI50 [34] of 1.44 µM and a TGI [34] of 2.8 µM.
For COc1cc(CNc2nc3cc(N)cc(N)c3nc2-c2ccccc2)cc(OC)c1OC, the GI50 [35] was 15.6 µM, the TGI [35] was greater than 50 µM and the GI50 [1] was 6.34 µM. The TGI [1] was 14.7 µM, the GI50 [36] was 4.28 µM and the TGI [36] was 33.1 µM. For the same compound, the GI50 [2] was 5.33 µM, the TGI [2] was 11.2 µM and the GI50 [37] was 3.84 µM. For the same compound, the TGI [37] was 11.2 µM, the GI50 [3] was 1.9 µM and the TGI [3] was 8.76 µM. For the same compound, the GI50 [38] was 3.77 µM, the TGI [38] was greater than 50 µM and the GI50 [5] was 5.24 µM. For the same compound, the TGI [5] was 20 µM, the GI50 [6] was 1.94 µM and the TGI [6] was 8.31 µM. For the same compound, the GI50 [39] was 9.84 µM, the TGI [39] was 19.1 µM and the GI50 [7] was 3.27 µM. For the same compound, the TGI [7] was 13.9 µM, the GI50 [8] was 1.25 µM and the TGI [8] was greater than 50 µM. The GI50 [40] was 17.1 µM, the TGI [40] was greater than 50 µM and the GI50 [9] was 1.21 µM. It also gave a TGI [9] of 3.12 µM, a GI50 [10] of 3 µM and a TGI [10] of 33.4 µM. For the same compound, the GI50 [41] was 8.63 µM, the TGI [41] was 19.5 µM and the GI50 [42] was 9.11 µM. It also gave a TGI [42] greater than 50 µM, a GI50 [11] of 1.76 µM and a TGI [11] greater than 50 µM. For the same compound, the GI50 [12] was 0.478 µM, the TGI [12] was 10.2 µM and the GI50 [43] was 3.19 µM. It also gave a TGI [43] of 10.4 µM, a GI50 [44] of 9.52 µM and a TGI [44] of 18.2 µM. For the same compound, the GI50 [14] was 1.55 µM, the TGI [14] was greater than 50 µM and the GI50 [45] was 7.3 µM. The TGI [45] was 15.2 µM, the GI50 [46] was 0.227 µM and the TGI [46] was 0.907 µM. For the same compound, the GI50 [47] was 12.4 µM, the TGI [47] was greater than 50 µM and the GI50 [15] was 9.96 µM. For the same compound, the TGI [15] was 22.4 µM, the GI50 [16] was 8.64 µM and the TGI [16] was 17 µM. For the same compound, the GI50 [17] was 1.53 µM, the TGI [17] was greater than 50 µM and the GI50 [48] was greater than 50 µM. For the same compound, the TGI [48] was greater than 50 µM, the GI50 [18] was 10.2 µM and the TGI [18] was 21.8 µM. The GI50 [19] was 1.15 µM, the TGI [19] was 3.42 µM and the GI50 [21] was 21.5 µM. It also gave a TGI [21] greater than 50 µM, a GI50 [49] of 7 µM and a TGI [49] of 14.8 µM. The GI50 [22] was 2.18 µM, the TGI [22] was greater than 50 µM and the GI50 [50] was 0.697 µM. The TGI [50] was 3 µM, the GI50 [23] was 7.47 µM and the TGI [23] was 19.9 µM. It also gave a GI50 [24] of 2.93 µM, a TGI [24] of 14 µM and a GI50 [25] of 1.67 µM. The TGI [25] was 5.62 µM, the GI50 [51] was 1.34 µM and the TGI [51] was 8.01 µM. For the same compound, the GI50 [52] was 16.1 µM, the TGI [52] was greater than 50 µM and the GI50 [26] was 8.53 µM. It also gave a TGI [26] of 17.6 µM, a GI50 [53] of 0.721 µM and a TGI [53] of 7.79 µM. The GI50 [27] was 5.36 µM, the TGI [27] was 13.9 µM and the GI50 [28] was 8.66 µM. For the same compound, the TGI [28] was 16.7 µM, the GI50 [29] was 7.22 µM and the TGI [29] was 20.8 µM. For the same compound, the GI50 [30] was 0.813 µM, the TGI [30] was 14.6 µM and the GI50 [54] was 0.897 µM. It also gave a TGI [54] greater than 50 µM, a GI50 [31] of 1.54 µM and a TGI [31] of 4.51 µM. The GI50 [32] was 6.25 µM, the TGI [32] was 17.9 µM and the GI50 [55] was 1.73 µM. The TGI [55] was 6.25 µM, the GI50 [56] was 3.45 µM and the TGI [56] was 10.8 µM. The GI50 [33] was 8.09 µM, the TGI [33] was 15.5 µM and the GI50 [34] was 11.1 µM. The TGI [34] was greater than 50 µM.
With C[C@H](C(=O)N[C@@H](Cc1ccc(-c2ccccc2)cc1)C(=O)NC1CC(C)(C)N(C)C(C)(C)C1)c1ccc(-c2ccccc2)c(F)c1 the GI50 [2] was 1.62 µM, the TGI [2] was 3.05 µM and the GI50 [37] was 1.62 µM. For the same compound, the TGI [37] was 3.25 µM, the GI50 [38] was 1.37 µM and the TGI [38] was 2.87 µM. For the same compound, the GI50 [5] was 1.58 µM, the TGI [5] was 3 µM and the GI50 [57] was 1.74 µM. It also gave a TGI [57] of 3.42 µM, a GI50 [7] of 1.53 µM and a TGI [7] of 2.94 µM. For the same compound, the GI50 [9] was 1.26 µM, the TGI [9] was 2.7 µM and the GI50 [44] was 1.74 µM. The TGI [44] was 3.39 µM, the GI50 [45] was 1.49 µM and the TGI [45] was 3.02 µM. It also gave a GI50 [46] of 1.29 µM, a TGI [46] of 2.56 µM and a GI50 [16] of 1.54 µM. It also gave a TGI [16] of 3.08 µM, a GI50 [17] of 1.06 µM and a TGI [17] of 2.43 µM. It also gave a GI50 [18] of 1.77 µM, a TGI [18] of 4.19 µM and a GI50 [19] of 1.19 µM. It also gave a TGI [19] of 2.56 µM, a GI50 [20] of 0.818 µM and a TGI [20] of 2.84 µM. It also gave a GI50 [21] of 1.46 µM, a TGI [21] of 3 µM and a GI50 [23] of 0.884 µM. The TGI [23] was 2.28 µM, the GI50 [51] was 1.56 µM and the TGI [51] was 3.03 µM. The GI50 [52] was 1.61 µM, the TGI [52] was 3.55 µM and the GI50 [26] was 1.67 µM. For the same compound, the TGI [26] was 3.18 µM, the GI50 [53] was 1.59 µM and the TGI [53] was 2.94 µM. The GI50 [28] was 1.31 µM, the TGI [28] was 2.77 µM and the GI50 [30] was 1.35 µM. For the same compound, the TGI [30] was 3.74 µM, the GI50 [32] was 1.75 µM and the TGI [32] was 3.32 µM. It also gave a GI50 [56] of 2.12 µM, a TGI [56] of 3.8 µM and a GI50 [33] of 1.92 µM. The TGI [33] was 3.63 µM, the GI50 [34] was 1.27 µM and the TGI [34] was 2.64 µM.
